Data from patent publication US20210094954A1, “PREPARATION METHODS AND APPLICATIONS OF 3,5-DISUBSTITUTED METHYLPYRAZOLO[1,5-A]PYRIMIDINE-7-HYDROXYLIC SALTS” (priority 2019, published 2021).
Like-named read-outs stand apart in the source and are kept apart here.

Legend:
Format in all cases: cell-based
[1] = tested on: Streptococcus agalactia B group; experiment: microbe, parasite or virus in culture; conditions: Streptococcus; 37° C., 24 hours; read-out: MIC values of in vitro antibacterial test results
Bacillus subtilis 168 = experiment: microbe, parasite or virus in culture; conditions: Bacillus subtilis, 168; 37° C., 24 hours; read-out: MIC values of in vitro antibacterial test results
[2] = tested on: Streptococcus pneumoniae M2; experiment: microbe, parasite or virus in culture; conditions: Streptococcus pneumoniae, M2; 37° C., 24 hours; read-out: MIC values of in vitro antibacterial test results
[3] = tested on: Staphylococcus aureus 43300(MRSA); experiment: microbe, parasite or virus in culture; conditions: Staphylococcus aureus, MRSA, 24 h, read-out: MIC values of in vitro antibacterial test results
Bacillus cereus 2 = experiment: microbe, parasite or virus in culture; conditions: Bacillus cereus, 2; 37° C., 24 hours; read-out: MIC values of in vitro antibacterial test results
[4] = tested on: Bacillus anthracis Bacillus 1; experiment: microbe, parasite or virus in culture; conditions: Bacillus anthracis, 24 h, read-out: MIC values of in vitro antibacterial test results
[5] = tested on: Staphylococcus aureus 29231; experiment: microbe, parasite or virus in culture; conditions: Staphylococcus aureus, 29231; 37° C., 24 hours; read-out: MIC values of in vitro antibacterial test results
[6] = tested on: Staphylococcus aureus 703(MRSA); experiment: microbe, parasite or virus in culture; conditions: Staphylococcus aureus, MRSA, 24 h, read-out: MIC values of in vitro antibacterial test results
[7] = tested on: F2518(VRE), Staphylococcus aureus resistant strain 43300(MRSA), 703 (MRSA), pneumococcal resistance bacteria 6303(PRSP); experiment: microbe, parasite or virus in culture; conditions: read-out: MIC values (μM)
[8] = tested on: Enterococcus faecalis 29212; experiment: microbe, parasite or virus in culture; conditions: Enterococcus faecalis, 29212; 37° C., 24 hours; read-out: MIC values of in vitro antibacterial test results
Clostridium perfringens = experiment: microbe, parasite or virus in culture; conditions: Clostridium perfringens, 24 h, read-out: MIC values of in vitro antibacterial test results
Peel fungus = experiment: organism not typed; conditions: 37° C., 24 hours; read-out: MIC values of in vitro antibacterial test results
[9] = tested on: Streptococcus pneumoniae 10351; experiment: microbe, parasite or virus in culture; conditions: Streptococcus pneumoniae, 10351; 37° C., 24 hours; read-out: MIC values of in vitro antibacterial test results
[10] = tested on: Streptococcus pneumoniae 6303 (PRSP); experiment: microbe, parasite or virus in culture; conditions: Streptococcus pneumoniae, PRSP, 24 h, read-out: MIC values of in vitro antibacterial test results
[11] = tested on: Enterococcus faecalis F2518(VRE); experiment: microbe, parasite or virus in culture; conditions: Enterococcus faecalis, VRE, 24 h, read-out: MIC values of in vitro antibacterial test results
Diphtheria bacilli = experiment: organism not typed; conditions: 37° C., 24 hours; read-out: MIC values of in vitro antibacterial test results
Oral Candida = experiment: microbe, parasite or virus in culture; conditions: Candida
[12] = 37° C., 24 hours, read-out: MIC values of in vitro antibacterial test results

Row | SMILES | MIC [1] | MIC (Bacillus subtilis 168) | MIC [2] | MIC [3] | MIC (Bacillus cereus 2) | MIC [4] | MIC [5] | MIC [6] | MIC [7] | MIC [8] | MIC (Clostridium perfringens) | MIC (Peel fungus) | MIC [9] | MIC [10] | MIC [11] | MIC (Diphtheria bacilli) | MIC (Oral Candida; read-out: MIC values (μM)) | MIC (Oral Candida; [12])
1 | Cc1nn2c([O-])cc(-c3ccc(N(C)C)cc3)nc2c1-c1ccc(F)cc1F.[K+] [Compound 24, Potassium 3-(2,4-difluorophenyl)-5-(4-(dimethylamino)phenyl)-2-methylpyrazolo[1,5-α]pyrimidin-7-olate] | > 150 µg/mL | < 100 µg/mL | < 100 µg/mL | < 150 µg/mL | < 100 µg/mL | > 150 µg/mL | < 100 µg/mL | < 100 µg/mL | < 100 µg/mL | < 100 µg/mL | < 150 µg/mL | < 150 µg/mL | < 100 µg/mL | < 150 µg/mL | < 150 µg/mL | > 150 µg/mL | < 100 µg/mL | < 100 µg/mL
2 | Cc1nn2c([O-])cc(-c3ccc([O-])nc3)nc2c1-c1ccc(F)cc1F.[Na+].[Na+] [Compound 19, Disodium 3-(2,4-difluorophenyl)-2-methyl-5-(6-hydroxypyridin-3-yl)pyrazolo[1,5-α]pyrimidin-7-olate] | > 150 µg/mL | > 150 µg/mL | < 100 µg/mL | < 100 µg/mL | < 100 µg/mL | > 150 µg/mL | > 150 µg/mL | < 150 µg/mL | < 100 µg/mL | < 150 µg/mL | > 150 µg/mL | < 150 µg/mL | > 150 µg/mL | > 150 µg/mL | < 150 µg/mL | > 150 µg/mL |  | > 150 µg/mL
3 | Cc1nn2c([O-])cc(-c3ccc(C(=O)NCCN(C)C)cc3)nc2c1-c1ccc(F)cc1F.[Na+] [Compound 31, Sodium 3-(2,4-difluorophenyl)-5-(4-((2-(dimethylamino)ethyl)carbamoyl)phenyl)-2-methylpyrazolo[1,5-α]pyrimidin-7-olate] | > 150 µg/mL | < 100 µg/mL | < 100 µg/mL | < 150 µg/mL | < 100 µg/mL | > 150 µg/mL | < 100 µg/mL | < 100 µg/mL | < 100 µg/mL | < 100 µg/mL | > 150 µg/mL | > 150 µg/mL | < 100 µg/mL | < 100 µg/mL | < 150 µg/mL | > 150 µg/mL | < 100 µg/mL | < 100 µg/mL
4 | Cc1nn2c([O-])cc(-c3ccc(C(N)=O)nc3)nc2c1-c1ccc(F)cc1F.[Na+] [Compound 32] | > 150 µg/mL | > 150 µg/mL | < 100 µg/mL | < 100 µg/mL | < 100 µg/mL | > 150 µg/mL | > 150 µg/mL | < 150 µg/mL | < 100 µg/mL | < 150 µg/mL | > 150 µg/mL | < 150 µg/mL | > 150 µg/mL | < 150 µg/mL | < 150 µg/mL | > 150 µg/mL | < 100 µg/mL | < 100 µg/mL
